Data set [1] in a line: Pharmacokinetics after single intravenous administration to cannulated rats, noncompartmental analysis. Format: in vivo, rat. The settings on record: for clearance / Vd / half-life: male, Wistar, rat, plasma, iv; for clearance: read-out: CL, total body clearance; for Vd: read-out: Vz, volume of distribution based on the terminal phase; for half-life: read-out: t0.5λz, terminal half-life. How it is done:
Male Wistar rats, 15–17 weeks of age and weighing between 250 and 350 g, purchased from the Animal Facility of the Jagiellonian University Medical College, Krakow, Poland, were used in all experiments. They were kept under conditions of constant temperature (21–25 °C) and relative humidity of approximately 40–65% with a standard light/dark cycle. Animals were housed in stainless steel cages with suspended wire mesh floors (maximum of 5 rats per cage) with free access to distilled water and the commercial rodent chaw. All study protocols were approved by the First Local Ethical Committee on Animal Testing of the Jagiellonian University (licenses no. Zi/604/2011 and 13/2014).
Three days prior to the experiment, the rat’s jugular vein was cannulated (SAI Infusion Technologies, Lake Villa, IL, USA), allowing for multiple blood samples from a single animal. […] The doses were selected based on the results of our previous studies on rats and mice. Four rats per compound were used. Multiple blood samples were taken over a period of at least 120 min into heparinized tubes; plasma was separated by centrifugation (Universal 32, Hettich, Germany) at 1400× g for 20 min and stored at −80 °C until analysis.
(§1) For the purpose of the quantitative analysis of free and total plasma concentrations of studied compounds, different analytical methods were developed. Theo was extracted from the biological samples by liquid–liquid extraction using dichloromethane. The mixture consisting of 100 μL of rat plasma or ultrafiltrate, 10 μL of theobromine (25 μg/mL in methanol) used as IS, 20 μL of 0.1 M HCl, and 5 mL of dichloromethane was agitated on a shaker (VXR Vibrax, IKA, Staufen, Germany) and subsequently centrifuged for 20 min at 3000 rpm (Universal 32, Hettich, Germany). A clear supernatant (4 mL) was transferred into a glass conical tube and evaporated to dryness under a stream of nitrogen in a water bath at 37 °C. The residue was then reconstituted in 100 μL of methanol, vortexed for 30 s, and the solution was transferred into the automatic sampler vials. Finally, 10–50 μL aliquot was injected into the HPLC/DAD system (LaChrome Elite, Merck-Hitachi, Germany). Chromatographic separation was performed on the LiChrospher 100 RP-18 (250 × 4 mm i.d., 5 µm particle size) analytical column coupled with a LiChroCART® guard column (4.0 × 4.0 mm, 5 μm) from Merck (Darmstadt, Germany). The mobile phase consisted of a mixture of methanol and deionized water (20:80, v/v) and was pumped through the system at a flow rate of 1.0 mL/min. The peaks were detected by a DAD detector at the wavelength of 271 nm. […] The analytical run lasted 20 min.
Plasma or ultrafiltrate samples containing PTX or (R)-LSF were placed in a glass tube and spiked with 10 µL of the IS solution (100 µg/mL temazepam in methanol). Samples were then acidified with 20 µL of 0.1 M hydrochloric acid, and 3 mL of dichloromethane was added to each sample. Tubes were shaken for 20 min and subsequently centrifuged (2000× g, 20 min). Then, 2.5 mL of dichloromethane was transferred to a clean glass conical tube and evaporated under a gentle stream of nitrogen in a water bath at 37 °C. The dried residue was dissolved in 100 µL of the mobile phase, and 50 µL of this solution was injected into the HPLC column. Analysis was performed on a 250 × 4.6 mm Chiralpak AD column (Daicel Corp., Tokyo, Japan) with 10 μm particle size, protected with a 20 × 4.6 mm LC-Si guard-column (Supelco Inc., Bellefonte, PA, USA). Mobile phase consisted of hexane: 2-propanol, 84:16 (v/v), and 0.01% diethylamine and was pumped at a flow rate of 1.4 mL/min. Calibration curves were linear in a range of 0.1–50 mg/L. The retention times of IS, PTX, and (R)-LSF were 7, 16, and 20 min, respectively. […]

A short description of data set [2]: Plasma protein binding / unbound fraction by ultrafiltration of plasma collected 15 min after i.v. administration. Format: in vitro ADME. The settings on record: male, Wistar, rat, intravenous. The procedure:
The free concentrations of studied compounds in plasma were determined and unbound fraction (fu) was calculated in all available plasma samples obtained 15 min after the intravenous administration. At this time point, 500–600 µL of blood was collected and plasma samples obtained were divided into two portions: 150–200 µL for measurement of free compound concentrations and 100 µL for measurement of the total drug concentrations. Plasma proteins were separated by an ultrafiltration method using Centrifree® devices with Ultracel PL regenerated cellulose membrane, 30,000 NMWL (Merck, Germany). For direct measurement of the free concentrations of compounds, each plasma sample was transferred to a sample reservoir of the disposable filter unit and centrifuged (1000× g) for 20 min at 25 °C. An aliquot of the ultrafiltrate was directly subjected to analysis. Free and total compound concentrations were measured by a high-performance liquid chromatography method with diode-array detection (HPLC-DAD) or liquid chromatography with tandem mass spectrometry (LC-MS/MS).
as §1, with “Theo was extracted from the biological samples by liquid–liquid extraction using dichloromethane.” left out
Plasma or ultrafiltrate samples containing PTX or (R)-LSF were placed in a glass tube and spiked with 10 µL of the IS solution (100 µg/mL temazepam in methanol). Samples were then acidified with 20 µL of 0.1 M hydrochloric acid, and 3 mL of dichloromethane was added to each sample. Tubes were shaken for 20 min and subsequently centrifuged (2000× g, 20 min). Then, 2.5 mL of dichloromethane was transferred to a clean glass conical tube and evaporated under a gentle stream of nitrogen in a water bath at 37 °C. The dried residue was dissolved in 100 µL of the mobile phase, and 50 µL of this solution was injected into the HPLC column. Analysis was performed on a 250 × 4.6 mm Chiralpak AD column (Daicel Corp., Tokyo, Japan) with 10 μm particle size, protected with a 20 × 4.6 mm LC-Si guard-column (Supelco Inc., Bellefonte, PA, USA). Mobile phase consisted of hexane: 2-propanol, 84:16 (v/v), and 0.01% diethylamine and was pumped at a flow rate of 1.4 mL/min. […] HPLC system (Thermo Separation Product, San Jose, CA, USA) consisted of a UV/VIS spectrophotometric detector (Spectra 100) with absorbance set at 275 nm, P100 pump, and Rheodyne 7125 manual injector (Alltech Associates, Deerfield, IL, USA) with a 50 µL sample loop. Chromatograms were recorded and integrated with an SP 4400 ChromJet integrator (San Jose, CA, USA).

The next data set relates to plasma proteins. Set-up: method as in earlier work. The settings on record: cited from earlier work.
Setting [3] is: male Wistar rats, single i.v. dose (50 mg/kg Theo; 40 mg/kg PTX, LSF; 5 mg/kg GR-1 to GR-5; 2 mg/kg GR-6 to GR-8), geometric mean, n = 4.
The mark [4] stands for this setting: rat plasma 15 min after i.v. administration, ultrafiltration, geometric mean, n = 4, read-out: fb, fraction bound to plasma proteins (converted).
Where [5] appears, read: rat plasma 15 min after i.v. administration, ultrafiltration, geometric mean, n = 4, read-out: fu, fraction unbound in plasma.
Setting [6] is: rat plasma proteins, read-out: percent of plasma protein binding (converted).

Read-outs that look alike come from different tables or passages of the source.

This is an account of results in paper PMC11597386, “Pharmacokinetics and Quantitative Structure–Pharmacokinetics Relationship Study of Xanthine Derivatives with Antidepressant, Anti-Inflammatory, and Analgesic Activity in Rats” (Pharmaceutics, 2024).

Turning to `C[C@@H](O)CCCCn1c(=O)c2c(ncn2C)n(C)c1=O` [(R)-LSF, R-lisofylline, reference compound], the “Vss, volume of distribution at steady-state” value (shortened to “Vss, volume of distribution”) in data set [1] (setting [3]) came out at 0.78 L/kg. Also, the clearance (as a rule, a measure of how efficiently the substance is removed, as volume per time) in data set [1] was found to be 22.1 mL/min/kg. Moreover, the Vd in data set [1] is 0.82 L/kg. Further, the half-life – broadly, how long it takes for the measured level to halve – in data set [1] stood at 25.7 min. Also, the fraction unbound at 15 min in data set [2] (setting [4]), in data set [2] (setting [5]) and in data set [2] (setting [6]) was 0.79 each time.
As to `Cn1c(=O)c2c(ncn2CCCCN2CCN(c3cccc(Cl)c3)CC2)n(C)c1=O` [GR-1], in data set [1], the clearance was determined as 33.1 mL/min/kg, the Vd turned out to be 2.17 L/kg and the half-life is 45.4 min. Besides, the fraction unbound at 15 min in data set [2] (setting [4]) is 0.08. In addition, the fraction unbound at 15 min in data set [2] (setting [5]) worked out at 0.08.
In the case of `Cn1c(=O)c2c(ncn2CCCCCN2CCN(c3ccccc3)CC2)n(C)c1=O` [GR-2], the clearance in data set [1] turned out to be 29.6 mL/min/kg. Also, in data set [1], the Vd is 1.52 L/kg. In data set [1], the half-life was 35.6 min. Further, the fraction unbound at 15 min is 0.29 in data set [2] (setting [4]), 0.29 in data set [2] (setting [5]) and 0.28 to 0.29 in data set [2] (setting [6]).
`COc1ccccc1N1CCN(CCCCCn2cnc3c2c(=O)n(C)c(=O)n3C)CC1` [GR-3]: in data set [1], the clearance was 23.6 mL/min/kg, the Vd came to 1.7 L/kg and the half-life stood at 49.8 min. Besides, in data set [2] (setting [4]), the fraction unbound at 15 min is 0.28. Also, in data set [2] (setting [5]), the fraction unbound at 15 min stood at 0.28. Besides, the fraction unbound at 15 min in data set [2] (setting [6]) was 0.28 to 0.29.
Turning to `Cn1c(=O)c2c(ncn2CCCCCN2CCN(c3cccc(Cl)c3)CC2)n(C)c1=O` [GR-4], in data set [1], the clearance was found to be 26.4 mL/min/kg, the Vd is 1.9 L/kg and the half-life came to 50 min. Moreover, the fraction unbound at 15 min in data set [2] (setting [4]) is 0.06. The fraction unbound at 15 min in data set [2] (setting [5]) was determined as 0.06.
Turning to `CCOc1nc2c(c(=O)n(C)c(=O)n2C)n1CCCC(=O)NN` [GR-5], the “Vss, volume of distribution” value in data set [1] (setting [3]) was determined as 0.78 L/kg. Besides, in data set [1], the clearance worked out at 25.3 mL/min/kg, the Vd stood at 1.43 L/kg and the half-life is 39 min. Moreover, the fraction unbound at 15 min in data set [2] (setting [4]) was 0.89. In data set [2] (setting [5]), the fraction unbound at 15 min was determined as 0.89. Further, in data set [2] (setting [6]), the fraction unbound at 15 min is 0.89.
With `COc1nc2c(c(=O)n(C)c(=O)n2C)n1CCCC(=O)O` [GR-6], in data set [1] (setting [3]), the “Vss, volume of distribution” value is given as 0.49 L/kg and the “Vz, volume of distribution based on the terminal phase” value was found to be 1.06 L/kg. Further, in data set [1], the clearance came to 43.1 mL/min/kg and the half-life stood at 17.1 min. Moreover, the fraction unbound at 15 min in data set [2] (setting [4]) is 0.31. Moreover, in data set [2] (setting [5]), the fraction unbound at 15 min is 0.31.
For the molecule `COc1nc2c(c(=O)n(C)c(=O)n2C)n1CCCC(=O)NCc1ccccc1` [GR-7], in data set [1] (setting [3]), the “Vss, volume of distribution” value is reported as 0.78 L/kg. Moreover, in data set [1], the clearance amounted to 43.2 mL/min/kg, the Vd came to 0.95 L/kg and the half-life is 15.2 min. For the same molecule, the fraction unbound at 15 min in data set [2] (setting [4]) is 0.13. Also, the fraction unbound at 15 min in data set [2] (setting [5]) is 0.13.
As for `COC(=O)Cn1c(=O)[nH]c2c1c(=O)n(C)c(=O)n2C` [GR-8], in data set [1] (setting [3]), the “Vss, volume of distribution” value was 0.33 L/kg. Moreover, in data set [1], the clearance turned out to be 68.1 mL/min/kg, the Vd was found to be 0.66 L/kg and the half-life came to 6.75 min. Also, the fraction unbound at 15 min in data set [2] (setting [4]) is 0.14. Further, in data set [2] (setting [5]), the fraction unbound at 15 min turned out to be 0.14.
In the case of `CC(=O)CCCCn1c(=O)c2c(ncn2C)n(C)c1=O` [PTX, pentoxifylline, reference compound], in data set [1] (setting [3]), the “Vss, volume of distribution” value came to 0.92 L/kg. Also, in data set [1], the clearance was 55.5 mL/min/kg, the Vd is 1.18 L/kg and the half-life amounted to 14.7 min. The fraction unbound at 15 min in data set [2] (setting [4]) was 0.19. Also, the fraction unbound at 15 min in data set [2] (setting [5]) is 0.19.
Regarding `Cn1c(=O)c2[nH]cnc2n(C)c1=O` [Theo, theophylline, reference compound], the “Vss, volume of distribution” value in data set [1] (setting [3]) stood at 0.72 L/kg. For the same molecule, in data set [1], the clearance turned out to be 2.14 mL/min/kg, the Vd was 0.73 L/kg and the half-life stood at 236 min.
For `Cn1c(=O)c2c(ncn2CC(O)CO)n(C)c1=O` (centres unmarked) [diprophyllinum], in the data set with plasma proteins, the “percent of plasma protein binding” value was 84–90%.
